Like-named read-outs stand apart in the source and are kept apart here.
What was measured:
TMD8 (ABC DLBCL) = system: TMD8 (ABC DLBCL); parameters: method as in Report CC-90010-Pharm-1018; conditions: TMD8, Experiment 1, ref Report CC-90010-Pharm-1018; read-out: absolute IC50, proliferation; cited from earlier work
[1] = Clinical plasma and CSF pharmacokinetics, part A; type: in vivo; conditions: human
Method: Protocol CC-90010-ST-001 Celgene Corporation
Following oral administration of CC-90010, geometric mean peak exposure to CC-90010, based on Cmax, increased with dose on Day 1 (single dose) and after last dose (repeated dosing), in a manner approximately proportional with dose. Across all dose levels and both sampling occasions, Cmax was observed a few hours after dosing, with median tmax ranging from 1 to 2 hours postdose. The terminal elimination half-life, where estimated, was generally similar across the dose schedules, ranging from approximately 40 to 70 hours, after repeated dosing of […]
across the dose levels, after repeated dosing of CC-90010. There was evidence of accumulation after repeated dosing of CC-90010 for all dose schedules and dose levels, with accumulation […]
Between-subject variability across the dose levels ranged from 22.0% to 91.7% on Day 1 based […]
Cerebrospinal fluid samples were collected for one subject, who had quantifiable cerebrospinal fluid concentrations of CC-90010, with an average time matched CSF/plasma ratio of 6.6%.
1.4. Safety Monitoring Plan […]
(1 picture or pasted object on this page, not shown here)
The provisional CC-90010 dose levels (total doses within on cycle) are: 180 mg in Schedule 1, […]
220 mg in Schedule 4. It is however possible for some doses to be skipped or additional dose levels to be added during the course of the study, based on the emerging safety information.
After each cohort the posterior distributions for the probabilities of a DLT rates at different dose levels are obtained. The results of this analysis are summarized in terms of the estimated probabilities that the true rate of DLT at each dose-level will have of lying in each of the […]
• [0.16, 0.33) targeted toxicity
• [0.33, 1.00] excessive toxicity.
Following the principle of escalation with EWOC, after each cohort of subjects the recommended dose is the one with the highest posterior probability of the DLT rate falling in the target interval [16%, 33%) among the doses fulfilling EWOC, ie, it is unlikely (<25% posterior probability) that the DLT rate at the dose falls in the excessive toxicity interval.
Note that the dose that maximizes the posterior probability of targeted toxicity is the best estimate of the MTD, but it may not be an admissible dose according to the overdose criterion if the amount of data is insufficient. […]
Plasma PK parameters such as AUC0-24, C max, Tmax, t1/2, CL/F, and Vz/F of CC-90010 will be calculated by the noncompartmental analysis method from the plasma concentration-time profiles of CC-90010. Additional PK parameters including CSF to plasma concentration ratio of CC-90010, may be calculated, if data permits. […]

GBM15 GBM PDX = system: GBM15 GBM PDX; parameters: method as in Unpublished data from Celgene Corporation; conditions: Day 29, ref Unpublished data from Celgene Corporation, cited from earlier work
BCRP or MRP2 = system: BCRP or MRP2; parameters: method as in Investigator's Brochure; conditions: BCRP or MRP2, ref Investigator's Brochure; cited from earlier work
[2] = system: CYP1A2, CYP2A6, CYP2B6, CYP2C8, CYP2C9, CYP2C19, CYP2D6, CYP2E1, and CYP3A4/5; parameters: method as in Investigator's Brochure; conditions: all nine isozymes tested, ref Investigator's Brochure; cited from earlier work
OCI-LY-10 (DOX-R) = system: OCI-LY-10 (DOX-R); parameters: method as in Report CC-90010-Pharm-1018; conditions: Table 2, ref Report CC-90010-Pharm-1018, read-out: absolute IC50, proliferation; cited from earlier work

Cn1cc(-c2cc(S(C)(=O)=O)ccc2OCC2CC2)c2ccccc2c1=O [trotabresib]
IC50 (TMD8 (ABC DLBCL)): 0.19 µM
Kp ([1]; CSF, oral, one subject, read-out: average time matched CSF/plasma ratio): 0.066
Tmax ([1]; in vivo, part A, across all dose levels, Day 1 and last dose, read-out: median tmax): 1 to 2 h
Vd/F ([1]; in vivo, part A, across dose levels, after repeated dosing, read-out: Vss/F): 134 to 553 L
half-life ([1]; in vivo, part A, across dose schedules, after repeated dosing, read-out: terminal elimination half-life): 40 to 70 h
mean percent TGI (GBM15 GBM PDX; GBM15, 15 mg/kg/dose (5/2)): 65%
mean percent TGI (GBM15 GBM PDX; GBM15, 25 mg/kg/dose (3/4)): 65%
mean percent TGI (GBM15 GBM PDX; GBM15, 37.5 mg/kg/dose (2/5)): 70%
transporter inhibition (BCRP or MRP2): not an inhibitor
time-dependent inhibition [2]: little to no time-dependent
IC50 (OCI-LY-10 (DOX-R)): 1.1 µM

From PMC10011554, “BET inhibitor trotabresib in heavily pretreated patients with solid tumors and diffuse large B-cell lymphomas” (Nature Communications, 2023)
